This series can be described thus: In vitro liver microsomal stability assay. Type of series: in vitro ADME. To be noted: 0.5 mg per mL liver microsome protein, NADPH-generating system, 5 microgram per mL test compound, 37° C., 0-30 minutes, LC/MS/MS. How it is done: Liver microsomal stability assays were conducted at 0.5 mg per mL liver microsome protein with an NADPH-generating system in 2% sodium bicarbonate (2.2 mM NADPH, 25.6 mM glucose 6-phosphate, 6 units per mL glucose 6-phosphate dehydrogenase and 3.3 mM magnesium chloride). Test compounds were prepared as solutions in 20% acetonitrile-water and were added to the assay mixture (final assay concentration 5 microgram per mL) and incubated at 37° C. Final concentration of acetonitrile in the assay should be <1%. Aliquots (50 μL) were taken out at times 0, 7.5, 15, 22.5, and 30 minutes, and diluted with ice cold acetonitrile (200 μL) to stop the reactions. Samples were centrifuged at 12,000 RPM for 10 minutes to precipitate proteins. Supernatants were transferred to microcentrifuge tubes and stored for LC/MS/MS analysis of the degradation half-life of the test compounds.

`[2H]C([2H])(c1cccc(O)c1)[C@]([2H])(N)C(=O)O` [Example 3, d3-2-Amino-3-(3-hydroxy-phenyl)-propionic acid]: the “degradation half-life as compared to the non-isotopically enriched drug” value is recorded as “decrease in degradation half-life”.

Consider `[2H][C@@H](c1cccc(O)c1)[C@]([2H])(N)C(=O)O` [Example 2, d3-2-Amino-3-(3-hydroxy-phenyl)-propionic acid], for which the “degradation half-life as compared to the non-isotopically enriched drug” value is given as “decrease in degradation half-life”.

The values above are taken from patent US20100172916A1, “SUBSTITUTED HYDROXYPHENYLAMINE COMPOUNDS” (AUSPEX PHARMACEUTICALS, INC., priority 2008, published 2010).
